Test results taken from patent publication US12378198B2, “Crystalline l-arginine salt of (R)-2-(7-(4-cyclopentyl-3-(trifluoromethyl)benzyloxy)-1,2,3,4-tetrahydrocyclo-penta [b]indol-3-yl)acetic acid(compound1) for use in SIPI receptor-associated disorders” (Arena Pharmaceuticals, Inc., priority 2015, dated 2025).
Where a name gives a salt, the structure may show the parent alone. Read-outs that look alike come from different tables or passages of the source.

What was measured:
[1] = BET specific surface area, nitrogen adsorption; format: physicochemical; settings: N2 adsorption at 77.3 K, eleven point method, P/P0 about 0.05 to about 0.3, degassed at 25° C. for 960 minutes
Description: In addition to the techniques described herein, specific surface can also be used to characterize the free-plates of the present invention. Accordingly, the specific surface area values disclosed in the present invention have been obtained by means of a specific surface area analysis technique based on the BET (Brunauer, Emmett and Teller) theory, which is a well-accepted theory known in the art for the calculation of surface areas of solids by means of measuring their physical adsorption of gas molecules (see: Brunauer, S.; Emmett, P. H.; and Teller, E.; J. Am. Chem. Soc., 1938, 60, 309). In particular, the specific surface area values measured in the present invention have been calculated from the BET surface area plot obtained by measuring the quantity of nitrogen gas molecules adsorbed by a weighted amount of solid at different relative pressures (P/P0) within the range 0.05-0.3 (P/P0), at 77.3 K. The measurement of the adsorption of gas molecules was carried out by means of a Micromeritics™ TriStar II BET surface analyzer having the characteristics as set out below in Example 14. Namely, nitrogen gas was used for the adsorption measurement. The sample for each analysis was degassed at 25° C. for 960 minutes under vacuum (i.e., 100 mm/Hg). The determination of the adsorption of nitrogen was measured at 77.3 K at eleven relative pressures (P/P0) sufficiently dispersed within the range of about 0.05 to about 0.30 (i.e. eleven absolute pressures in the range of about 36 mm Hg to about 223 mm Hg relative to the saturated pressure at the time of measurement that ranged from about 738 mmHg to about 743 mmHg).
In general, the specific surface areas for Lots A1-A9 (plates) and H1-H6 (spherulites) were determined by physical adsorption of nitrogen gas on the surface of the sample from each lot using the well-established technique based on the Brunauer, Emmett, and Teller theory.
The BET surface areas for the samples were measured by Micromeritics Pharmaceutical Services using a Micromeritics™ TriStar II BET surface area analyzer (MicroActive for TriStar II Plus 2.02 Software™). The samples were degassed at 25° C. for 960 minutes under vacuum (i.e., 100 mm/Hg). The determination of the adsorption of N2 at 77.3 K was measured using a BET surface area eleven point method with relative pressures in the range of about 0.05 to about 0.3 (P/P0) for a weighed amount of each sample, see TABLE M1, TABLE M2, and TABLE N below. The analysis was performed per ISO9277.

[2] = Dynamic moisture-sorption (DMS) analysis; format: physicochemical; settings: DMS at 25° C.
Experimental: A dynamic moisture-sorption (DMS) analysis was performed on representative Lot A2 (see, Example 3, TABLE A) of the L-arginine salt of Compound 1 having the plate morphology and representative Lot H2 (prepared in a similar manner as described in Example 8, Method 2 Steps G and H in WO2011/094008; and described in TABLE K, Example 8 herein) of the L-arginine salt of Compound 1 having the spherulite morphology. […] By comparison the L-arginine salt of Compound 1 (spherulite morphology) gained between 0.5% weight (adsorption cycle) and 0.7% weight (desorption cycle) at 90% RH and 25° C. […] DMS analysis was performed using a TA Instruments Q5000 SA (EQ2418). Instrument performance was verified in-house. Samples were added to a tared sample holder on the Q5000 SA balance. The sample was dried at 40° C. and then analyzed at 25° C. with an adsorption phase from 30% RH to 90% RH and a desorption phase from 90% RH to 10% RH.

lymphocyte [3] = settings: dog; reflects total plasma concentration; read-out: calculated lymphocyte lowering IC50; cited from earlier work
S1P3 = S1P3 (Homo sapiens, UniProt Q99500); settings: read-out: EC50 β-arrestin; cited from earlier work
[4] = human; cited from earlier work
lymphocyte [5] = settings: mouse; reflects total plasma concentration; read-out: calculated lymphocyte lowering IC50; cited from earlier work
[6] = tested on: experimental autoimmune encephalomyelitis (EAE) model; settings: cited from earlier work
[7] = tested on: collagen induced arthritis (CIA) model; settings: cited from earlier work
S1P2 = S1P2 (Homo sapiens, UniProt O95136); settings: read-out: EC50 β-arrestin; cited from earlier work
lymphocyte [8] = settings: rat; reflects total plasma concentration; read-out: calculated lymphocyte lowering IC50; cited from earlier work
[9] = rat; cited from earlier work
lymphocyte [10] = settings: monkey; reflects total plasma concentration; read-out: calculated lymphocyte lowering IC50; cited from earlier work
lymphocyte count = test: Phase 1b clinical trial, lymphocyte count lowering in blood; format: in vivo, healthy volunteers
Experimental: The L-arginine salt of Compound 1 was selected for clinical evaluation. A randomized, double-blind, placebo-controlled Phase 1b clinical trial was conducted to evaluate the safety, tolerability, pharmacodynamics, and pharmacokinetics of multiple-ascending doses of the L-arginine salt of Compound 1 in five different dosing cohorts. A total of 50 healthy volunteers received the L-arginine salt of Compound 1 and 10 healthy volunteers received placebo for 21 days.

S1P2, sequence (O95136 whole entry, species assumed): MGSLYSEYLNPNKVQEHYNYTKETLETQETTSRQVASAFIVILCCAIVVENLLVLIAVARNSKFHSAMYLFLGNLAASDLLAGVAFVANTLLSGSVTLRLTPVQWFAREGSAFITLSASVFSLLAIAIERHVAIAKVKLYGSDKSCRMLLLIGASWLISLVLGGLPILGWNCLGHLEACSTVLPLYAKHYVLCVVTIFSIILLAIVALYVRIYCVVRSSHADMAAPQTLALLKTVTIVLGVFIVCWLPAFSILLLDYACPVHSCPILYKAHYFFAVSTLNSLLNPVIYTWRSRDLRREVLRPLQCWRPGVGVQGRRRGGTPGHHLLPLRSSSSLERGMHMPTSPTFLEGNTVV
S1P3, sequence (Q99500 whole entry, species assumed): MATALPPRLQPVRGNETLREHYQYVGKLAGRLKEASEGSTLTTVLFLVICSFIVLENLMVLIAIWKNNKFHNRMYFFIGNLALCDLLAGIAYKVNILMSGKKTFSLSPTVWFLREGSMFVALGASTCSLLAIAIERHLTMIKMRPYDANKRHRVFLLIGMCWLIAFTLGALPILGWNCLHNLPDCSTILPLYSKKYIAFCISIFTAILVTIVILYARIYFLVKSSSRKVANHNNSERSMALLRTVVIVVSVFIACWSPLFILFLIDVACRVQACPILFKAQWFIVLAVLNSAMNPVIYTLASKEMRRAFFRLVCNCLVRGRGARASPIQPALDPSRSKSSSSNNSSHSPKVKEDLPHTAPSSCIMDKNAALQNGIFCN

O=C(O)C[C@H]1CCc2c1[nH]c1ccc(OCc3ccc(C4CCCC4)c(C(F)(F)F)c3)cc21 [Lot H1]
BET Surface Area ([1]; listed as H1): 10.0 m^2/g

O=C(O)C[C@H]1CCc2c1[nH]c1ccc(OCc3ccc(C4CCCC4)c(C(F)(F)F)c3)cc21 [Lot H5]
BET Surface Area ([1]; listed as H5): 10.9 m^2/g

O=C(O)C[C@H]1CCc2c1[nH]c1ccc(OCc3ccc(C4CCCC4)c(C(F)(F)F)c3)cc21 [Lot A1]
BET Surface Area ([1]; listed as A1): 0.7 m^2/g

O=C(O)C[C@H]1CCc2c1[nH]c1ccc(OCc3ccc(C4CCCC4)c(C(F)(F)F)c3)cc21 [Lot H2]
BET Surface Area ([1]; listed as H2): 13.5 m^2/g
weight gain at 90% RH (adsorption cycle) ([2]; 90% RH, adsorption cycle): 0.5 % weight
weight gain at 90% RH (desorption cycle) ([2]; 90% RH, desorption cycle): 0.7 % weight

O=C(O)C[C@H]1CCc2c1[nH]c1ccc(OCc3ccc(C4CCCC4)c(C(F)(F)F)c3)cc21 [Compound 1, (R)-2-(7-(4-cyclopentyl-3-(trifluoromethyl)benzyloxy)-1,2,3,4-tetrahydrocyclopenta[b]indol-3-yl)acetic acid]
IC50 (lymphocyte [3]): 58 nM
EC50 (S1P3): > 10000 nM
protein bound [4]: 97.8%
IC50 (lymphocyte [5]): 101 nM
EAE disease, therapeutic administration ([6]; administered day 18 to day 37, all animals with severe disease at start, similar to fingolimod): reverse the disease relative to vehicle
EAE disease onset and severity, prophylactic ([6]; prophylactic dosing, discontinued at day 25, relative to vehicle): prevented the onset and severity of disease relative to vehicle up to day 25
histological parameters in knees and ankles ([7]; CIA rats): Improvement in histological parameters in the knees and ankles
ankle diameters ([7]; prophylactic daily oral dose, day 17, similar to fingolimod or methotrexate): significant reduction in ankle diameters
EC50 (S1P2): > 10000 nM
IC50 (lymphocyte [8]): 51 nM
protein bound [9]: 98.0%
IC50 (lymphocyte [10]): 98 nM

O=C(O)C[C@H]1CCc2c1[nH]c1ccc(OCc3ccc(C4CCCC4)c(C(F)(F)F)c3)cc21 [Lot H3]
BET Surface Area ([1]; listed as H3): 11.8 m^2/g

O=C(O)C[C@H]1CCc2c1[nH]c1ccc(OCc3ccc(C4CCCC4)c(C(F)(F)F)c3)cc21 [Lot H4]
BET Surface Area ([1]; listed as H4): 12.0 m^2/g

O=C(O)C[C@H]1CCc2c1[nH]c1ccc(OCc3ccc(C4CCCC4)c(C(F)(F)F)c3)cc21 [Lot A2]
BET Surface Area ([1]; listed as A2): 0.7 m^2/g
hygroscopicity [2]: non-hygroscopic
weight gain at 90% RH ([2]; 90% RH): 0.2 % weight

O=C(O)C[C@H]1CCc2c1[nH]c1ccc(OCc3ccc(C4CCCC4)c(C(F)(F)F)c3)cc21 [Lot H6]
BET Surface Area ([1]; listed as H6): 12.3 m^2/g

O=C(O)C[C@H]1CCc2c1[nH]c1ccc(OCc3ccc(C4CCCC4)c(C(F)(F)F)c3)cc21 [Lot A4]
BET Surface Area ([1]; listed as A4): 1.0 m^2/g

O=C(O)C[C@H]1CCc2c1[nH]c1ccc(OCc3ccc(C4CCCC4)c(C(F)(F)F)c3)cc21 [Lot A8]
BET Surface Area ([1]; listed as A8): 3.0 m^2/g

O=C(O)C[C@H]1CCc2c1[nH]c1ccc(OCc3ccc(C4CCCC4)c(C(F)(F)F)c3)cc21 [Lot A9]
BET Surface Area ([1]; listed as A9): 3.1 m^2/g

O=C(O)C[C@H]1CCc2c1[nH]c1ccc(OCc3ccc(C4CCCC4)c(C(F)(F)F)c3)cc21 [Lot A5]
BET Surface Area ([1]; listed as A5): 0.8 m^2/g

O=C(O)C[C@H]1CCc2c1[nH]c1ccc(OCc3ccc(C4CCCC4)c(C(F)(F)F)c3)cc21 [L-arginine salt of Compound 1, L-arginine salt of (R)-2-(7-(4-cyclopentyl-3-(trifluoromethyl)benzyloxy)-1,2,3,4-tetrahydrocyclo-penta[b]indol-3-yl)acetic acid]
lymphocyte count, mean decrease from baseline (lymphocyte count; multiple-ascending doses for 21 days, dose-dependent): up to 69%
lymphocyte count recovery to baseline (lymphocyte count; on average, after conclusion of dosing): within one week

O=C(O)C[C@H]1CCc2c1[nH]c1ccc(OCc3ccc(C4CCCC4)c(C(F)(F)F)c3)cc21 [Lot A3]
BET Surface Area ([1]; listed as A3): 1.5 m^2/g

O=C(O)C[C@H]1CCc2c1[nH]c1ccc(OCc3ccc(C4CCCC4)c(C(F)(F)F)c3)cc21 [Lot A6]
BET Surface Area ([1]; listed as A6): 2.4 m^2/g

O=C(O)C[C@H]1CCc2c1[nH]c1ccc(OCc3ccc(C4CCCC4)c(C(F)(F)F)c3)cc21 [Lot A7]
BET Surface Area ([1]; listed as A7): 1.9 m^2/g
